{"source": "ChEMBL document CHEMBL4402560", "about": "“Sarco/Endoplasmic Reticulum Calcium ATPase Inhibitors: Beyond Anticancer Perspective” (J Med Chem, 2020)", "key": {"[1]": {"biological_target": "T1, Sarcoplasmic/endoplasmic reticulum calcium ATPase 1 (Oryctolagus cuniculus, UniProt P04191)", "T1 sequence (P04191 whole entry)": "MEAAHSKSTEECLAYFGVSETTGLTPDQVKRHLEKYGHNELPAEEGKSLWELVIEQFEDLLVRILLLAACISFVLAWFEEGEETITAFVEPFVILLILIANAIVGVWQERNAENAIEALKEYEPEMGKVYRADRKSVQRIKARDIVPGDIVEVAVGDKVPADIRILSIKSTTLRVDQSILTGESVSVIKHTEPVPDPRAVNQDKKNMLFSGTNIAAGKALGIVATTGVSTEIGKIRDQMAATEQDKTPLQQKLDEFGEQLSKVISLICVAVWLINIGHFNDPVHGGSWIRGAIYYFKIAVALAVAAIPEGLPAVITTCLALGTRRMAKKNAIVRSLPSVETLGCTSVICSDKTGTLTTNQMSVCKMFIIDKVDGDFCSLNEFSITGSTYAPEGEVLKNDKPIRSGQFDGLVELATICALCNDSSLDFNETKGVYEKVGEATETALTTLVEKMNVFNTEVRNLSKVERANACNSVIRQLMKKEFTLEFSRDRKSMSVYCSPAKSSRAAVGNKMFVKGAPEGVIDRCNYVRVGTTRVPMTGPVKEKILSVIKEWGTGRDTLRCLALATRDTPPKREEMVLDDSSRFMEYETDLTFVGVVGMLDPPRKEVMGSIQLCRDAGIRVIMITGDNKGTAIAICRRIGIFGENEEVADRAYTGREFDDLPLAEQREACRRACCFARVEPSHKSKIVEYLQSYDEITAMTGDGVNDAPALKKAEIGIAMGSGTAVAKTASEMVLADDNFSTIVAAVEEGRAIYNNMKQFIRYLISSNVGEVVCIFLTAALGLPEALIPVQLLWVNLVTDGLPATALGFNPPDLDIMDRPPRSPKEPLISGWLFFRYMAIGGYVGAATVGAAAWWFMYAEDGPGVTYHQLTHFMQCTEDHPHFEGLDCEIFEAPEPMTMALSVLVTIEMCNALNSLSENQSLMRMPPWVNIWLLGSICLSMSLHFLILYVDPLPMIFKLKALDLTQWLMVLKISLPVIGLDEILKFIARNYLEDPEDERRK", "assay": "Inhibition of rabbit skeletal muscle microsomes SERCA1a"}, "[2]": {"biological_target": "T1, Sarcoplasmic/endoplasmic reticulum calcium ATPase 1", "assay": "Inhibition of rabbit skeletal muscle microsomes SERCA1a incubated for 10 mins by enzyme-coupled method"}, "[3]": {"biological_target": "T1, Sarcoplasmic/endoplasmic reticulum calcium ATPase 1", "assay": "Inhibition of rabbit SERCA1b expressed in COS7 cells microsomal membranes preincubated for 10 mins followed by addition of ATP and measured after 40 mins by ELISA method", "assay_type": "cell-based"}, "[4]": {"biological_target": "T2, Sarcoplasmic/endoplasmic reticulum calcium ATPase 2 (Homo sapiens, UniProt P16615)", "T2 sequence (P16615 whole entry)": "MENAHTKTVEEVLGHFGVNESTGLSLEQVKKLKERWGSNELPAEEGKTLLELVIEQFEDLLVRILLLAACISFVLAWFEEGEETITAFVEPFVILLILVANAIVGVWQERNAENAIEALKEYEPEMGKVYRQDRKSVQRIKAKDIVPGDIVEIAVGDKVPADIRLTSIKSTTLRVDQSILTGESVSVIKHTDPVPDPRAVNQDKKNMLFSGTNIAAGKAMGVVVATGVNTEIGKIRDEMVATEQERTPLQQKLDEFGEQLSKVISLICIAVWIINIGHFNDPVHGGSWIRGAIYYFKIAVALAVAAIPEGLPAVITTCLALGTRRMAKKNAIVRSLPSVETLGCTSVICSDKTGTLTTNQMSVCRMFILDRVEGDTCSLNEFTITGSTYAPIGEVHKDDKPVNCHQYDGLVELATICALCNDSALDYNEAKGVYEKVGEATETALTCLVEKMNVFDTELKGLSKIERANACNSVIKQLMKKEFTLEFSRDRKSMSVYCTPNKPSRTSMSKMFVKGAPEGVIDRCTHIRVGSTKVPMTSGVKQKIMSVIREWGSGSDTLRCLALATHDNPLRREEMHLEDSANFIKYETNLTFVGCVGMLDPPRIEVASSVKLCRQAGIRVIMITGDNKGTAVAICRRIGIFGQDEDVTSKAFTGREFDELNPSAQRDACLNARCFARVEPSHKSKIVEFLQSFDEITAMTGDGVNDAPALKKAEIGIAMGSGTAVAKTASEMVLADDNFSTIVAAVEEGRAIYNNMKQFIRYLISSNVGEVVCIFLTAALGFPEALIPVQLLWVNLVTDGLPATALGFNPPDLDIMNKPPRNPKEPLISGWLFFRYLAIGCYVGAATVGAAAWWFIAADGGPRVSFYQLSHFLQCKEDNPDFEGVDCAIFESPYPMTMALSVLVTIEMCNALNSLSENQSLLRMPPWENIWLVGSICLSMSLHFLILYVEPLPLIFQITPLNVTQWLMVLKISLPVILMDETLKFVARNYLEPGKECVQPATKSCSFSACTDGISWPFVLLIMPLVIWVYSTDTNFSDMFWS", "assay": "Inhibition of human SERCA2b expressed in COS7 cells microsomal membranes preincubated for 10 mins followed by addition of ATP and measured after 40 mins by ELISA method", "assay_type": "cell-based"}, "[5]": {"biological_target": "T3, Sarcoplasmic/endoplasmic reticulum calcium ATPase 3 (Homo sapiens, UniProt Q93084)", "T3 sequence (Q93084 whole entry)": "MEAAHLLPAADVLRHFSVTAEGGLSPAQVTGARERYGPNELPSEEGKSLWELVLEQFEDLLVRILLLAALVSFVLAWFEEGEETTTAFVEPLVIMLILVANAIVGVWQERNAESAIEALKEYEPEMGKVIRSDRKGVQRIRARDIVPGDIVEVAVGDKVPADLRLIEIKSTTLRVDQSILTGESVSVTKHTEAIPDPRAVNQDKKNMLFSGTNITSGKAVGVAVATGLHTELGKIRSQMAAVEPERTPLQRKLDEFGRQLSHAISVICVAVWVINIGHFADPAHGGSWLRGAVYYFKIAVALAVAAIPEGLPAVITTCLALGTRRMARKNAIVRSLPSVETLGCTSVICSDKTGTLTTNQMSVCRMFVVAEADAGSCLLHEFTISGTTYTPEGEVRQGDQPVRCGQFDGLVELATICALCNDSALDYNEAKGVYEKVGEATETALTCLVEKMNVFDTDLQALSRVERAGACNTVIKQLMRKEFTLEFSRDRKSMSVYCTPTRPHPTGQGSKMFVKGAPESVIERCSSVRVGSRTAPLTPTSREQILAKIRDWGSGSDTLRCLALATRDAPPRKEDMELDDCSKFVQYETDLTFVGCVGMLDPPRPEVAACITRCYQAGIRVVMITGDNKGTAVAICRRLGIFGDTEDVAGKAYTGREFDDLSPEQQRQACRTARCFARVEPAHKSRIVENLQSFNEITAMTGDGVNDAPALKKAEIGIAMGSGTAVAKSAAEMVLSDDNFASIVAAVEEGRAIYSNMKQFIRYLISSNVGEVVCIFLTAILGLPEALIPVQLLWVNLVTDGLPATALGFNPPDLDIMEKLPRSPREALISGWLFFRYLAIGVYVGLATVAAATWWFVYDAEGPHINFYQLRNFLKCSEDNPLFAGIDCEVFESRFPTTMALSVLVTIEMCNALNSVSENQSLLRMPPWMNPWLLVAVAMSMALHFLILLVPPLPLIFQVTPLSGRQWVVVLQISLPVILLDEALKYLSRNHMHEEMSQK", "assay": "Inhibition of human SERCA3a expressed in COS7 cells microsomal membranes preincubated for 10 mins followed by addition of ATP and measured after 40 mins by ELISA method", "assay_type": "cell-based"}, "[6]": {"assay": "Inhibition of SERCA (unknown origin)", "design": "species or system Homo sapiens"}, "[7]": {"biological_target": "T1, Sarcoplasmic/endoplasmic reticulum calcium ATPase 1", "assay": "Inhibition of rabbit skeletal muscle microsomes SERCA1a by malachite green based colorimetric method"}, "[8]": {"assay": "Inhibition of SERCA in human PC3 cell microsomes by enzyme-coupled method"}, "[9]": {"biological_target": "T1, Sarcoplasmic/endoplasmic reticulum calcium ATPase 1", "assay": "Inhibition of rabbit skeletal muscle microsomes SERCA1a by enzyme-coupled method"}, "[10]": {"biological_target": "Sarcoplasmic/endoplasmic reticulum calcium ATPase 2 (Rattus norvegicus, UniProt P11507)", "sequence (P11507 whole entry)": "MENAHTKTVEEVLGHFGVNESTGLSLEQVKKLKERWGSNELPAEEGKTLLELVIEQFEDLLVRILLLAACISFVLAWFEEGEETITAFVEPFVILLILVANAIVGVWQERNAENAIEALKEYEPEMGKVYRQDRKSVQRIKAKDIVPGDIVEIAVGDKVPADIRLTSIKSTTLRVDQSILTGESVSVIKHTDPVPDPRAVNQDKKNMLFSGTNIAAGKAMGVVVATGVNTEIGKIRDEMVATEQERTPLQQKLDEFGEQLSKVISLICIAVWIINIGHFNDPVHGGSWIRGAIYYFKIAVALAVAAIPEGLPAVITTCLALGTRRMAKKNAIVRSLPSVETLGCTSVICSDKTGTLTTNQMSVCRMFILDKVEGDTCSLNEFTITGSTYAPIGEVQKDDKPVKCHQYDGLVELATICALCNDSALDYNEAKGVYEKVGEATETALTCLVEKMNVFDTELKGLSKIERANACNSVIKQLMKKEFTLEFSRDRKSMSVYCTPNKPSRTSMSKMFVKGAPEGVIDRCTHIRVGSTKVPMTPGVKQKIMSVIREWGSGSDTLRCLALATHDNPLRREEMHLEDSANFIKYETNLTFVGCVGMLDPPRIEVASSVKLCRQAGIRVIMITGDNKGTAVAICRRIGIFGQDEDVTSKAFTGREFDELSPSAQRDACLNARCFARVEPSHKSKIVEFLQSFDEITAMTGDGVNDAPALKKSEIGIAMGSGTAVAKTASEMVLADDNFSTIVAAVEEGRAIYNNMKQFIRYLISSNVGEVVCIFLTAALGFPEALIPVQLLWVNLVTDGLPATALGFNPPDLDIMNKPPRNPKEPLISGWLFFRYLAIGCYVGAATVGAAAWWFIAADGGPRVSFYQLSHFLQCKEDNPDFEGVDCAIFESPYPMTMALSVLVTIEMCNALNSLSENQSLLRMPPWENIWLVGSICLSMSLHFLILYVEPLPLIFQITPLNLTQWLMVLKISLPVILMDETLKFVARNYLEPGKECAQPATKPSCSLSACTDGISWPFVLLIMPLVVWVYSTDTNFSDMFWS", "assay": "Inhibition of rat cerebellar microsomes SERCA2b by enzyme-coupled method", "design": "species or system Cerebellum"}, "[11]": {"biological_target": "T1, Sarcoplasmic/endoplasmic reticulum calcium ATPase 1", "assay": "Inhibition of rabbit microsomes SERCA1a by enzyme-coupled method"}, "[12]": {"assay": "Inhibition of fish liver microsomes SERCA by enzyme-coupled method", "design": "species or system Squalius cephalus"}, "[13]": {"assay": "Inhibition of porcine cerebellar microsomes SERCA2b by enzyme-coupled method", "design": "species or system Sus scrofa domesticus, Cerebellum"}, "[14]": {"assay": "Inhibition of porcine cardiac microsomes SERCA2a by enzyme-coupled method", "design": "species or system Sus scrofa domesticus, Heart"}, "[15]": {"biological_target": "T2, Sarcoplasmic/endoplasmic reticulum calcium ATPase 2", "assay": "Inhibition of SERCA2b in human platelet microsomes by enzyme-coupled method"}, "[16]": {"biological_target": "T3, Sarcoplasmic/endoplasmic reticulum calcium ATPase 3", "assay": "Inhibition of SERCA3 in human platelet microsomes by enzyme-coupled method"}, "[17]": {"biological_target": "T2, Sarcoplasmic/endoplasmic reticulum calcium ATPase 2", "assay": "Inhibition of SERCA2a (unknown origin)"}, "[18]": {"biological_target": "T1, Sarcoplasmic/endoplasmic reticulum calcium ATPase 1", "assay": "Inhibition of SERCA1 in rabbit skeletal muscle microsomes assessed as decrease in NADH absorbance by NADH-coupled enzyme assay", "design": "species or system Muscle tissue"}, "[19]": {"species": "Homo sapiens", "assay": "Inhibition of SERCA (unknown origin) at 150 uM relative ro control"}, "[20]": {"biological_target": "T1, Sarcoplasmic/endoplasmic reticulum calcium ATPase 1", "assay": "Inhibition of rabbit skeletal muscle microsomes SERCA1a preincubated for 10 mins followed by addition of ATP and measured after 40 mins"}}}
{"smiles": "CC[C@H](C)[C@H](NC(=O)[C@H](CCCCN)NC(=O)[C@H](CCCCN)NC(=O)[C@H](C)NC(=O)[C@H](CC(C)C)NC(=O)[C@H](C)NC(=O)[C@H](C)NC(=O)[C@H](CC(C)C)NC(=O)[C@H](C)NC(=O)[C@H](CCCCN)NC(=O)[C@H](CC(C)C)NC(=O)[C@H](CC(N)=O)NC(=O)[C@@H](NC(=O)[C@H](Cc1ccc(O)cc1)NC(=O)[C@H](CCCNC(=N)N)NC(=O)[C@@H]1CCCN1C(=O)[C@H](CCCNC(=N)N)NC(=O)[C@H](CC(N)=O)NC(=O)[C@H](CCC(N)=O)NC(=O)[C@H](Cc1ccccc1)NC(=O)[C@@H](Cc1ccc(O)cc1)N(C)C(=O)Cc1ccccc1)[C@@H](C)CC)C(=O)N[C@@H](CC(C)C)C(N)=O", "values": [{"measurement": "IC50", "setting": "[1]", "value": 0.61, "unit": "µM"}]}
{"smiles": "OCCN1CCN(CCCN2c3ccccc3Sc3ccc(C(F)(F)F)cc32)CC1", "note": "[FLUPHENAZINE]", "values": [{"measurement": "IC50", "setting": "[2]", "value": 15, "unit": "µM"}]}
{"smiles": "CC(C)(C)c1cc(O)c(C(C)(C)C)cc1O", "values": [{"measurement": "IC50", "setting": "[3]", "value": "2 to 7", "unit": "µM"}, {"measurement": "IC50", "setting": "[4]", "value": "2 to 7", "unit": "µM"}, {"measurement": "IC50", "setting": "[5]", "value": "2 to 7", "unit": "µM"}, {"measurement": "IC50", "setting": "[6]", "value": 0.4, "unit": "µM"}]}
{"smiles": "Clc1cccc(C(Nc2ccnc3cc(Cl)ccc23)c2ccc(CN3CCCC3)cc2)c1", "note": "(centres undefined)", "values": [{"measurement": "IC50", "setting": "[7]", "value": 8, "unit": "µM"}]}
{"smiles": "Cc1ccc(-c2cc(C(F)(F)F)nn2-c2ccc(S(N)(=O)=O)cc2)cc1", "note": "[CELECOXIB]", "values": [{"measurement": "IC50", "setting": "[8]", "value": 32, "unit": "µM"}]}
{"smiles": "CN(C)CCCN1c2ccccc2Sc2ccc(Cl)cc21", "note": "[CHLORPROMAZINE]", "values": [{"measurement": "IC50", "setting": "[2]", "value": 23, "unit": "µM"}]}
{"smiles": "O=C(O[C@@H]1Cc2c(O)cc(O)cc2O[C@@H]1c1cc(O)c(O)c(O)c1)c1cc(O)c(O)c(O)c1", "note": "[EPIGALOCATECHIN GALLATE]", "values": [{"measurement": "IC50", "setting": "[1]", "value": 12, "unit": "µM"}]}
{"smiles": "CCOC(=O)CC1C(C(=O)OCC)=C(N)Oc2ccc(-c3cc(OC)cc(OC)c3)cc21", "note": "(centres undefined)", "values": [{"measurement": "IC50", "setting": "[1]", "value": 13.5, "unit": "µM"}]}
{"smiles": "CC(C)(c1ccc(O)cc1)c1ccc(O)cc1", "note": "[BISPHENOL A]", "values": [{"measurement": "IC50", "setting": "[9]", "value": 2, "unit": "µM"}, {"measurement": "IC50", "setting": "[10]", "value": 2, "unit": "µM"}, {"measurement": "IC50", "setting": "[11]", "value": 233, "unit": "µM"}, {"measurement": "IC50", "setting": "[12]", "value": 233, "unit": "µM"}]}
{"smiles": "CC[C@H](C)[C@H](N)C(=O)N[C@@H](CC(N)=O)C(=O)N[C@@H](CC(C)C)C(=O)N[C@@H](CCCCN)C(=O)N[C@@H](C)C(=O)N[C@@H](CC(C)C)C(=O)N[C@@H](C)C(=O)N[C@@H](C)C(=O)N[C@@H](CC(C)C)C(=O)N[C@@H](C)C(=O)N[C@@H](CCCCN)C(=O)N[C@@H](CCCCN)C(=O)N[C@H](C(=O)N[C@@H](CC(C)C)C(=O)O)[C@@H](C)CC", "values": [{"measurement": "Ki", "setting": "[9]", "value": 1, "unit": "µM"}]}
{"smiles": "Clc1cccc(C(Nc2ccnc3cc(Cl)ccc23)c2ccc(CN3CCN(c4ccnc5cc(Cl)ccc45)CC3)cc2)c1", "note": "(centres undefined)", "values": [{"measurement": "IC50", "setting": "[7]", "value": 1.3, "unit": "µM"}]}
{"smiles": "CC(C)(O)[C@H]1O[C@H]2CC[C@@]3(C)[C@@](O)(CC[C@H]4Cc5c([nH]c6ccccc56)[C@@]43C)C2=CC1=O", "note": "[PAXILLINE]", "values": [{"measurement": "IC50", "setting": "[9]", "value": 5, "unit": "µM"}, {"measurement": "IC50", "setting": "[13]", "value": 5, "unit": "µM"}, {"measurement": "IC50", "setting": "[14]", "value": 5, "unit": "µM"}, {"measurement": "IC50", "setting": "[15]", "value": 5, "unit": "µM"}, {"measurement": "IC50", "setting": "[16]", "value": 5, "unit": "µM"}]}
{"smiles": "C/C=C/C/C(C)=C\\[C@@H]1OC(=O)C[C@H](O[C@@H]2O[C@H](CO)[C@@H](O)[C@H](OC)[C@H]2O)/C=C/C[C@H](OC)/C(C)=C/[C@@H](C)C[C@H]2C=C[C@H]1OO2", "values": [{"measurement": "Ki", "setting": "[1]", "value": 0.018, "unit": "µM"}, {"measurement": "Ki", "setting": "[17]", "value": 0.0013, "unit": "µM"}]}
{"smiles": "CC/C(=C(/CC)c1ccc(O)cc1)c1ccc(O)cc1", "note": "[DIETHYLSTILBESTROL]", "values": [{"measurement": "IC50", "setting": "[11]", "value": "14 to 20", "unit": "µM"}, {"measurement": "IC50", "setting": "[12]", "value": "7 to 20", "unit": "µM"}, {"measurement": "IC50", "setting": "[6]", "value": 15, "unit": "µM"}]}
{"smiles": "COc1cc(/C=C/C(=O)CC(=O)/C=C/c2ccc(O)c(OC)c2)ccc1O", "note": "[CURCUMIN]", "values": [{"measurement": "Ki", "setting": "[3]", "value": 5.8, "unit": "µM"}, {"measurement": "Ki", "setting": "[4]", "value": 53, "unit": "µM"}, {"measurement": "Ki", "setting": "[5]", "value": 8.6, "unit": "µM"}, {"measurement": "IC50", "setting": "[9]", "value": "3 to 15", "unit": "µM"}, {"measurement": "IC50", "setting": "[13]", "value": "7 to 15", "unit": "µM"}, {"measurement": "IC50", "setting": "[14]", "value": "7 to 15", "unit": "µM"}, {"measurement": "IC50", "setting": "[15]", "value": "7 to 15", "unit": "µM"}, {"measurement": "IC50", "setting": "[16]", "value": "7 to 15", "unit": "µM"}]}
{"smiles": "CCCCC/C=C\\C/C=C\\C/C=C\\C/C=C\\CCCC(=O)O[C@@H]1[C@@H](O)[C@@H](O)[C@H](OC[C@H]2O[C@@H](Oc3c(-c4ccc(O)c(O)c4)oc4cc(O)cc(O)c4c3=O)[C@H](O)[C@@H](O)[C@@H]2O)O[C@H]1C", "values": [{"measurement": "IC50", "setting": "[18]", "value": 23, "unit": "µM"}]}
{"smiles": "Cc1ccc(-c2cc(C(F)(F)F)nn2-c2ccc(S(N)(=O)=O)cc2)c(C)c1", "values": [{"measurement": "IC50", "setting": "[1]", "value": 30, "unit": "µM"}]}
{"smiles": "O=C1c2c(O)cc(O)cc2OC2(c3ccc(O)c(O)c3)Oc3cc(-c4oc5cc(O)cc(O)c5c(=O)c4O)ccc3OC12O", "note": "(centres undefined)", "values": [{"measurement": "inhibition", "setting": "[19]", "value": 100, "unit": "%"}]}
{"smiles": "O=c1c(O)c(-c2ccccc2)oc2cc(O)cc(O)c12", "note": "[GALANGIN]", "values": [{"measurement": "IC50", "setting": "[20]", "value": 9, "unit": "µM"}]}
